Results published in patent publication US9765114B2, “Method for cancer immunotherapy” (International Institute of Cancer Immunology, Inc., priority 2005, dated 2017).
No end group written: not given here.

Columns and labels:
[1] = system: HLA-A24; conditions: HLA-A24-restricted manner; cited from earlier work
[2] = system: HLA-A24 antigen; conditions: compared with the wild type peptide; cited from earlier work
[3] = system: HLA-A2402 expressing VA13/A2402 cells pulsed with or without peptide; test: Test using human PBMC: IFN-γ ELISA of peptide-stimulated CD8 positive T cells; type: cell-based; conditions: Day 21 T cells, FIG. 9
Experimental: Peripheral blood (50 ml) was taken using heparinized vacuum blood collection tube from HLA-A24 positive healthy subjects. The blood diluted two fold with PBS (−) was overlayered on Ficoll-Paque (Amersham Biosciences), the amount of which was half of the amount of the blood, followed by centrifugation for 20 minutes at 2000 rpm. A cell layer containing the peripheral blood mononuclear cells (PBMC) was collected and 3-4 times the amount of PBS (−) was added thereto, followed by centrifugation for 10 minutes at 1800 rpm. The cell pellet was washed twice with PBS (−) and PMBC was collected.
The PMBC was suspended in medium for culturing lymphocyte (RPMI1640: AIM V=1:1, NEAA, 10% FCS) and cultured in a culture flask for two hours and nonadherent cells were collected. Using CD8^+ T cell isolation kit II (Miltenyi Biotec), CD8 positive T cells were collected among the nonadherent cells. The adherent cells were cultured in the medium for culturing lymphocyte containing GM-CSF (1000 U/ml) and IL-4 (1000 U/ml) for 7 days. The floating cells were collected as an antigen-presenting cell fraction containing dendritic cells (DC). The collected cells were frozen for preservation until they are used for experiments.
The DC fraction prepared as above was pulsed with the peptide of Example 1 (50 μg/ml) by incubating the cells with the peptide in AIM-V medium containing mitomycin (50 μg/ml) for one hour. After washing with the medium three times, the peptide of Example 1 was further added (50 μg/ml) for one hour pulse to prepare antigen-presenting cells. On Day 0, antigen-presenting cells pulsed with the peptide were added to CD8 positive T cells to conduct the first stimulation, and the cell culture was started in medium for culturing lymphocyte containing IL-7 (10 ng/ml) using 24-well plate. On Day 7, T cells were collected and after washing them, peptide stimulation using antigen-presenting cells pulsed with the peptide was conducted in a similar way to the first stimulation. On the next day (Day 8), IL-2 was added so that the concentration was 50 U/ml. On Day 14, T cells were collected and the third stimulation was conducted in a similar way to the first or second stimulation. On the next day (Day 15), IL-2 was added so that the concentration was 50 U/ml. On Day 21, T cells were collected and frozen for preservation.
1×10^5 cells of T cells of Day 21 were added to 2×10^4 cells of HLA-A2402 expressing VA13/A2402 cells pulsed with or without each of the peptides (wild type peptide (WT1235-243), modified peptide (WT1235-243(2M→Y)) or the peptide of Example 1) and 18 hours later, the supernatant was collected to determine the amount of IFN-γ using ELISA.
The results of the peptide specific reactivity of T cells stimulated with the synthetic peptide of Example 1 were shown in FIG. 9. […]

[4] = system: splenocytes; test: Immunization of a mouse (2), mouse IFN gamma ELISPOT of splenocytes; type: in vivo, HLA-A2402/K^b transgenic mouse; conditions: splenocytes 7 days after immunization; peptides added at 10^-6 M, 18 hours; FIG. 8
Experimental: The peptide of Example 1 was adjusted to 40 mg/ml in DMSO. Then, the solution (32.5 μl) was mixed with water for injection (540 μl). Further, the resulting solution (550 μl) was mixed with Freund's incomplete adjuvant (700 μl) (Montanide ISA51 (registered trademark)) (SEPPIC, Inc, Paris, France) using a glass syringe to prepare water-in-oil emulsion.
The resulting preparation (200 μl) was injected into an HLA-A2402/K^b transgenic mouse intradermally in the base of the tail for immunization. 7 days after initiation of the experiment, spleen was removed and splenocytes were prepared in a conventional manner (WO 02/47474). Then, tests were conducted using mouse IFN gamma ELISPOT set (Enzyme—Linked Immunospot) (Fujisawa, catalog No. BD-551083). The test was conducted according to the instructions attached to the set.
According to the attached instructions, the plate was washed and the number of spots was detected using KS Elispot Research System (Carl Zeiss). Elispot method is known as an alternative to a test for cytotoxic activity (J. Immunological Methods, 1995, 181, 45-54).

## CMTWNQMNL [WT1235-243, peptide spanning positions 235 to 243 of the cancer antigen protein WT1]
[1]
  activity to induce CTLs: having an activity to induce CTLs in HLA-A24-restricted manner

## CYTWNQMNL [WT1235-243 (2M→Y)]
[2]
  binding affinity for the HLA-A24 antigen: higher binding affinity for the HLA-A24 antigen than the wild type peptide

## H-Cys(H-Cys-OH)-Tyr-Thr-Trp-Asn-Gln-Met-Asn-Leu-OH (H-C(Cys)YTWNQMNL-OH; also: Cys1 disulfide-linked to a free Cys-OH (cystine)) [Example 1, derivative of WT1235-243 (2M→Y) modified with cystine]
[3]; VA13/A2402 cells not pulsed, 18 hours
  reactivity (IFN-γ) of T cells stimulated with the peptide to cells pulsed without the peptide: did not react
[3]; VA13/A2402 cells pulsed with WT1235-243 (2M→Y), 18 hours
  reactivity (IFN-γ) of T cells stimulated with the peptide to cells pulsed with the modified peptide (WT1235-243 (2M→Y)): reacted
[3]; VA13/A2402 cells pulsed with WT1235-243, 18 hours
  reactivity (IFN-γ) of T cells stimulated with the peptide to cells pulsed with the wild type peptide (WT1235-243): reacted
[3]; VA13/A2402 cells pulsed with the peptide of Example 1, 18 hours
  reactivity (IFN-γ) of T cells stimulated with the peptide to cells pulsed with the peptide of Example 1: sufficiently reacted
[4]
  HLA-A24 specific cell-mediated immunity, IFN gamma ELISPOT spots: could induce HLA-A24 specific cell-mediated immunity which cross reacted with the wild type peptide
